These are literature values, as cited in US8728545B2, “Extraction method for providing an organic certifiable Stevia rebaudiana extract” (Justbio Inc., priority 2010, dated 2014).

The conditions of data set [1]: in water; Crammer and Ikan, 1986.
The conditions of data set [2]: for Sweetness compared to sucrose: principal steviol glycosides found in stevia leaves; for Relative sweetness among steviol glycosides (in words): comparison between glycosides, Crammer and Ikan 1986, 1987.

Peptide text beside a SMILES is read from it.

With `COC(=O)[C@H](Cc1ccccc1)NC(=O)[C@H](CC(=O)O)NCCC(C)(C)C` [Neotame], the “Sweetness in Sucrose Equivalence (% SE)” value in data set [1] is 15.1 % SE.
With `C=C1C[C@@]23CC[C@H]4[C@@](C)(CCC[C@@]4(C)C(=O)[O-])[C@@H]2CC[C@]1(O[C@@H]1O[C@@H](CO)[C@@H](O)[C@H](O)[C@@H]1O[C@@H]1O[C@@H](CO)[C@@H](O)[C@H](O)[C@@H]1O)C3.[Na+]` [Steviobioside], in data set [2], the “Sweetness compared to sucrose” value was 100-125 fold.
Consider `O=S(=O)([O-])NC1CCCCC1.[Na+]` [Cyclamate-Na], for which the “Sweetness in Sucrose Equivalence (% SE)” value in data set [1] is reported as 15.2 % SE.
In the case of `CC1=CC(=O)[N-]S(=O)(=O)O1.[K+]` [Acesulfame-K], in data set [1], the “Sweetness in Sucrose Equivalence (% SE)” value is on record as 11.6 % SE.
`COC(=O)[C@H](Cc1ccccc1)NC(=O)[C@@H](N)CC(=O)O` [Aspartame] (H-Asp-Phe-OMe): the “Sweetness in Sucrose Equivalence (% SE)” value in data set [1] was 16.0 % SE.
As to `C=C1C[C@@]23CC[C@H]4[C@@](C)(CCC[C@@]4(C)C(=O)O[C@@H]4O[C@H](CO)[C@@H](O)[C@H](O)[C@H]4O[C@@H]4O[C@H](CO)[C@@H](O)[C@H](O)[C@H]4O)[C@@H]2CC[C@]1(O[C@@H]1O[C@H](CO)[C@@H](O)[C@H](O[C@@H]2O[C@H](CO)[C@@H](O)[C@H](O)[C@H]2O)[C@H]1O[C@@H]1O[C@H](CO)[C@@H](O)[C@H](O)[C@H]1O)C3` [Rebaudioside D], the “Sweetness in Sucrose Equivalence (% SE)” value in data set [1] is given as 10.1 % SE. Moreover, in data set [2], the “Relative sweetness among steviol glycosides (in words)” value was “as sweet as rebaudioside A” and the “Sweetness compared to sucrose” value was 240-450 fold.
For the compound `COc1ccc(CCC(=O)c2c(O)cc(O[C@@H]3O[C@H](CO)[C@@H](O)[C@H](O)[C@H]3O[C@@H]3O[C@@H](C)[C@H](O)[C@@H](O)[C@H]3O)cc2O)cc1O` [Neohesperidin Didydrochalcone], in data set [1], the “Sweetness in Sucrose Equivalence (% SE)” value is 9.8 % SE.
Regarding `O=C1[N-]S(=O)(=O)c2ccccc21.[Na+]` [Saccharin-Na], the “Sweetness in Sucrose Equivalence (% SE)” value in data set [1] is given as 10.1 % SE.
Consider `C=C1C[C@@]23CC[C@H]4[C@@](C)(CCC[C@@]4(C)C(=O)O[C@@H]4O[C@H](CO)[C@@H](O)[C@H](O)[C@H]4O)[C@@H]2CC[C@]1(O[C@@H]1O[C@H](CO)[C@@H](O)[C@H](O)[C@H]1O[C@@H]1O[C@@H](C)[C@H](O)[C@@H](O)[C@H]1O)C3` [Dulcoside A], for which the “Sweetness compared to sucrose” value in data set [2] was 50-120 fold.
For Rebaudioside C, the “Sweetness compared to sucrose” value in data set [2] is 50-120 fold.
As for `C=C1C[C@@]23CC[C@H]4[C@@](C)(CCC[C@@]4(C)C(=O)O[C@@H]4O[C@H](CO)[C@@H](O)[C@H](O)[C@H]4O[C@@H]4O[C@H](CO)[C@@H](O)[C@H](O)[C@H]4O)[C@@H]2CC[C@]1(O[C@@H]1O[C@H](CO)[C@@H](O)[C@H](O)[C@H]1O[C@@H]1O[C@H](CO)[C@@H](O)[C@H](O)[C@H]1O)C3` [Rebaudioside E], in data set [2], the “Relative sweetness among steviol glycosides (in words)” value is given as “as sweet as stevioside” and the “Sweetness compared to sucrose” value is reported as 150-300 fold.
`CC1(C)[C@@H](O[C@H]2O[C@H](C(=O)O)[C@@H](O)[C@H](O)[C@H]2O[C@@H]2O[C@H](C(=O)O)[C@@H](O)[C@H](O)[C@H]2O)CC[C@]2(C)[C@H]3C(=O)C=C4[C@@H]5C[C@@](C)(C(=O)O)CC[C@]5(C)CC[C@@]4(C)[C@]3(C)CC[C@@H]12.N` [Monoammonium Glycyrhisinate]: the “Sweetness in Sucrose Equivalence (% SE)” value in data set [1] is given as 7.3 % SE.
As to `C=C1C[C@@]23CC[C@H]4[C@@](C)(CCC[C@@]4(C)C(=O)O[C@@H]4O[C@H](CO)[C@@H](O)[C@H](O)[C@H]4O)[C@@H]2CC[C@]1(O[C@@H]1O[C@H](CO)[C@@H](O)[C@H](O)[C@H]1O[C@@H]1O[C@H](CO)[C@@H](O)[C@H](O)[C@H]1O)C3` [Stevioside], the “Sweetness compared to sucrose” value in data set [2] is given as 300 fold.
In the case of `OC[C@H]1O[C@H](O[C@]2(CCl)O[C@H](CCl)[C@@H](O)[C@@H]2O)[C@H](O)[C@@H](O)[C@H]1Cl` [Sucralose], the “Sweetness in Sucrose Equivalence (% SE)” value in data set [1] is listed as 13.0 % SE.
For `C=C1C[C@@]23CC[C@H]4[C@@](C)(CCC[C@@]4(C)C(=O)O[C@@H]4O[C@H](CO)[C@@H](O)[C@H](O)[C@H]4O)[C@@H]2CC[C@]1(O[C@@H]1O[C@H](CO)[C@@H](O)[C@H](O[C@@H]2O[C@H](CO)[C@@H](O)[C@H](O)[C@H]2O)[C@H]1O[C@@H]1O[C@H](CO)[C@@H](O)[C@H](O)[C@H]1O)C3` [Rebaudioside A], in data set [2], the “Relative sweetness among steviol glycosides (in words)” value is recorded as “the sweetest” and the “Sweetness compared to sucrose” value is listed as 250-450 fold.
For the compound Rebaudioside B, the “Sweetness compared to sucrose” value in data set [2] is listed as 300-350 fold.
